Measurements from patent US20090311249A1, “Capecitabine Combination Therapy” (priority 2006, published 2009).

Experiments:
[1] = Phase I and phase 2 single-agent trials of AP23573; assay type: in vivo, human; conditions: other dosing schedules
[2] = system: VEGF production in tumor cells; conditions: in vitro; cited from earlier work
VEGF = conditions: patients treated with AP23573; cited from earlier work
[3] = In vitro combination experiments of AP23573 with cytotoxics; assay type: cell-based; conditions: with several cytotoxics including 5-fluorouracil (5FU)
[4] = Phase 1b trial: pharmacokinetics of CAPE and its key metabolites in plasma; assay type: in vivo, human; conditions: AP23573 co-administered with CAPE
From the text: Planned pharmacokinetic (PK) and pharmacodynamic (PD) studies included: analysis of plasma, peripheral blood mononuclear cells (PBMC), skin, and tumor samples for effects on mTOR associated pathways*, VEGF* levels and the metabolism of CAPE and fluoropyrimidines (results of studies marked with a “*” are not presented herein).

SMILES	dose limiting toxicity [1]	effect on VEGF production [2]	VEGF levels (VEGF)	combination effect in vitro [3]	pharmacokinetics of 5FU [4]
CO[C@H]1C[C@@H]2CC[C@@H](C)[C@@](O)(O2)C(=O)C(=O)N2CCCC[C@H]2C(=O)O[C@H]([C@H](C)C[C@@H]2CC[C@@H](OP(C)(C)=O)[C@H](OC)C2)CC(=O)[C@H](C)/C=C(\C)[C@@H](O)[C@@H](OC)C(=O)[C@H](C)C[C@H](C)/C=C/C=C/C=C/1C [AP23573]	oral mucositis	inhibits VEGF production	reduced VEGF levels	at least additive	
O=c1[nH]cc(F)c(=O)[nH]1 [5FU, 5-fluorouracil]					not be impacted
